Values after ≈ are worked out from the molar mass of the structure shown. Where two headings read alike, the source gives them in different places.
Key:
Micrococcus luteus = assay: In vitro antimicrobial activity, microplate dilution procedure (MIC); format: cell-based
Experimental: (§1) The in vitro antimicrobial activity of the compounds of the invention was determined by a microplate dilution procedure. […] Resulting suspensions were diluted 1/10 in the appropriate broth or used undiluted for the inoculum. […] The compounds were then serially diluted two-fold in DMSO to give a working stock concentration range plate. The last row of wells was left compound-free receiving only DMSO to serve as a growth control. Five mcl from each well of the working stock plate was transferred to corresponding wells of a separate plate containing 95 mcl/well of the appropriate broth. All dilutions were made with either an automated dilutor or manually. […] Plates were incubated as described above and read for visible growth. The minimal inhibitory concentration (MIC: expressed in mcg/ml) of each compound tested against each test microorganism was determined as the lowest concentration of compound which prevents visible microbial growth.

Staphylococcus aureus = assay: as above; format: cell-based; settings: for MIC: Staphylococcus aureus; for activity relative to compound R / activity relative to compounds P and Q: from Table I
Experimental: as §1

Streptococcus faecalis = assay: as above; format: cell-based; settings: Enterococcus faecalis
Experimental: as §1

Streptococcus pneumoniae = assay: as above; format: cell-based
Experimental: as §1

Bacteroides fragilis = assay: In vitro antimicrobial activity, microplate dilution procedure (MIC), anaerobic; format: cell-based
Experimental: as §1

Pseudomonas aeruginosa = assay: In vitro antimicrobial activity, microplate dilution procedure (MIC); format: cell-based; settings: read-out: PA MIC
Experimental: as §1

Escherichia coli = assay: as above; format: cell-based
Experimental: as §1

[1] = Serum levels in monkeys after oral dosing; format: in vivo; settings: 25 mg/kg oral dosing; for half-life: monkey
Experimental: In monkeys, compounds A and C gave high and prolonged serum levels after 25 mg/kg oral dosing.

Staph. aureus = assay: In vivo antibacterial activity in infected mice (protective dose); settings: for Staph. aureus (PD₅₀) po / Staph. aureus (PD₅₀) sc: Mouse, one-half hour postinfection, deaths recorded for seven days; for Staph. aureus (PD₅₀) sc: subcutaneous; for activity relative to the prior art compounds: Staph. aureus, in vivo mouse, from Table II
Experimental: (§2) The in vivo antibacterial activity of the compounds of the invention was determined in female mice, 18-20 grams each. Aqueous solutions of the compounds to be tested were prepared by dissolving the free acid form in dilute sodium hydroxide and diluting the solution with distilled water to the desired concentration. Cultures of E. coli were grown in brain heart infusion broth, and the mice were inoculated intraperitoneally with 0.5 ml of the bacterial test inoculum suspended in saline. Cultures of Staph. aureus were thawed from frozen pooled stocks and mixed with 5% mucin. A 0.5 ml preparation was used to infect mice by i.p. inoculation. The mice were medicated subcutaneously (sc) or orally (po) with 0.5 ml of the test compound solution one-half hour postinfection. Deaths were recorded daily for seven days. Fifty percent protective dose values (PD₅₀) were calculated using probit analysis.

E. coli = assay: as above; settings: Mouse, one-half hour postinfection, deaths recorded for seven days; for E. coli (PD₅₀) sc: subcutaneous
Experimental: as §2

[2] = Strep. pneumoniae, read-out: MIC
[3] = Streptococcus faecalis, read-out: SF MIC

| SMILES | MIC (Micrococcus luteus; read-out: ML MIC) | MIC (Pseudomonas aeruginosa) | MIC (Staphylococcus aureus; read-out: SA MIC) | MIC (Streptococcus faecalis; [3]) | MIC (Streptococcus pneumoniae; read-out: SP MIC) | MIC (Escherichia coli; read-out: EC MIC) | MIC (Bacteroides fragilis; anaerobic, read-out: BF MIC) | activity relative to compound R (Staphylococcus aureus; Staph. aureus) | activity relative to compounds P and Q (Staphylococcus aureus; Staph. aureus) | Staph. aureus (PD₅₀) po (Staph. aureus) | Staph. aureus (PD₅₀) sc (Staph. aureus) | activity relative to the prior art compounds (Staph. aureus) | E. coli (PD₅₀) po (E. coli) | E. coli (PD₅₀) sc (E. coli) | other results |
| --- | --- | --- | --- | --- | --- | --- | --- | --- | --- | --- | --- | --- | --- | --- | --- |
| Cc1cc(-c2c(F)c(Sc3ccccc3)c3c(=O)c(C(=O)O)cn(C4CC4)c3c2F)cc(C)n1 [Example 6(c), 1-cyclopropyl-7-(2,6-dimethyl-4-pyridinyl)-6,8-difluoro-5-(phenylthio)-1,4-dihydro-4-oxo-3-quinolinecarboxylic acid] |  |  |  |  |  |  |  |  |  |  |  |  |  |  | MIC (Micrococcus luteus; M. luteus, read-out: MIC): 16 µg/mL (≈ 33.4 µM); MIC (Staphylococcus aureus; Staph. aureus, read-out: MIC): 1 µg/mL (≈ 2.09 µM); MIC (Streptococcus faecalis; Strep. faecalis, read-out: MIC): 16 µg/mL (≈ 33.4 µM); MIC (Streptococcus pneumoniae; [2]): 2 µg/mL (≈ 4.18 µM); MIC (Bacteroides fragilis; B. fragilis, read-out: MIC): 16 µg/mL (≈ 33.4 µM) |
| O=C(O)c1cn(C2CC2)c2cc(N3CCNCC3)c(F)cc2c1=O [Q, 1-Cyclopropyl-6-fluoro-7-(1-piperazinyl)-1,4-dihydro-4-oxo-3-quinolinecarboxylic acid, reference compound] | 2 µg/mL (≈ 6.04 µM) | 0.125 µg/mL (≈ 0.377 µM) | 0.25 µg/mL (≈ 0.754 µM) | 0.5 µg/mL (≈ 1.51 µM) | 0.25 µg/mL (≈ 0.754 µM) | 0.004 µg/mL (≈ 0.0121 µM) | 2 µg/mL (≈ 6.04 µM) |  |  |  |  |  |  |  |  |
| Cc1cc(-c2c(F)cc3c(=O)c(C(=O)O)cn(C4CC4)c3c2SCc2ccccc2)cc(C)n1 [Example 7, 1-cyclopropyl-7-(2,6-dimethyl-4-pyridinyl)-6-fluoro-1,4-dihydro-4-oxo-8-(benzylthio)-3-quinolinecarboxylic acid] |  |  |  |  |  |  |  |  |  |  |  |  |  |  | MIC (Micrococcus luteus; M. luteus, read-out: MIC): 64 µg/mL (≈ 135 µM); MIC (Staphylococcus aureus; Staph. aureus, read-out: MIC): < 0.125 µg/mL; MIC (Streptococcus faecalis; Strep. faecalis, read-out: MIC): 2 µg/mL (≈ 4.21 µM); MIC (Streptococcus pneumoniae; [2]): 2 µg/mL (≈ 4.21 µM); MIC (Escherichia coli; E. coli, read-out: MIC): 4 µg/mL (≈ 8.43 µM); MIC (Bacteroides fragilis; B. fragilis, read-out: MIC): 64 µg/mL (≈ 135 µM) |
| CCn1cc(C(=O)O)c(=O)c2ccc(-c3cc(C)nc(C)c3)cc21 [P, 7-(2,6-Dimethyl-4-pyridinyl)-1-ethyl-1,4-dihydro-4-oxo-3-quinolinecarboxylic acid, reference compound] | 8 µg/mL (≈ 24.8 µM) | 32 µg/mL (≈ 99.3 µM) | 0.25 µg/mL (≈ 0.776 µM) | 1 µg/mL (≈ 3.1 µM) | 2 µg/mL (≈ 6.2 µM) | 0.25 µg/mL (≈ 0.776 µM) | 16 µg/mL (≈ 49.6 µM) |  |  | 3.8 mg/kg | 2.37 mg/kg |  | 17.9 mg/kg | 13.5 mg/kg |  |

The next lines start with results.

| MIC (Micrococcus luteus; read-out: ML MIC) | MIC (Pseudomonas aeruginosa) | MIC (Staphylococcus aureus; read-out: SA MIC) | MIC (Streptococcus faecalis; [3]) | MIC (Streptococcus pneumoniae; read-out: SP MIC) | MIC (Escherichia coli; read-out: EC MIC) | MIC (Bacteroides fragilis; anaerobic, read-out: BF MIC) | SMILES | activity relative to compound R (Staphylococcus aureus; Staph. aureus) | activity relative to compounds P and Q (Staphylococcus aureus; Staph. aureus) | Staph. aureus (PD₅₀) po (Staph. aureus) | Staph. aureus (PD₅₀) sc (Staph. aureus) | activity relative to the prior art compounds (Staph. aureus) | E. coli (PD₅₀) po (E. coli) | E. coli (PD₅₀) sc (E. coli) | other results |
| --- | --- | --- | --- | --- | --- | --- | --- | --- | --- | --- | --- | --- | --- | --- | --- |
| 0.25 µg/mL (≈ 0.675 µM) | 4 µg/mL (≈ 10.8 µM) | 0.008 µg/mL (≈ 0.0216 µM) | 0.06 µg/mL (≈ 0.162 µM) | 0.016 µg/mL (≈ 0.0432 µM) | 0.06 µg/mL (≈ 0.162 µM) | 0.125 µg/mL (≈ 0.338 µM) | Cc1cc(-c2c(F)cc3c(=O)c(C(=O)O)cn(C4CC4)c3c2F)cc(C)n1 [C, 1-Cyclopropyl-6,8-difluoro-7-(2,6-dimethyl-4-pyridinyl)-1,4-dihydro-4-oxo-3-quinolinecarboxylic acid] | four times as active | thirty times as active | 0.09 mg/kg | 0.06 mg/kg | 9-30 times | 5.7 mg/kg | 6.1 mg/kg | maximum concentration [1]: 34 µg/mL; time of maximum concentration [1]: 5.5 h; half-life [1]: 1200 min |
| 0.5 µg/mL (≈ 1.42 µM) | 2 µg/mL (≈ 5.68 µM) | 0.008 µg/mL (≈ 0.0227 µM) | 0.06 µg/mL (≈ 0.17 µM) | 0.03 µg/mL (≈ 0.0851 µM) | 0.03 µg/mL (≈ 0.0851 µM) | 0.5 µg/mL (≈ 1.42 µM) | Cc1cc(-c2cc3c(cc2F)c(=O)c(C(=O)O)cn3C2CC2)cc(C)n1 [Compound A, 1-Cyclopropyl-7-(2,6-dimethyl-4-pyridinyl)-6-fluoro-1,4-dihydro-4-oxo-3-quinolinecarboxylic acid] | four times as active | thirty times as active | 0.20 mg/kg | 0.08 mg/kg | 9-30 times | 3.8 mg/kg | 3.1 mg/kg | maximum concentration [1]: 13 µg/mL; time of maximum concentration [1]: 7 h; half-life [1]: 780 min |
| 0.5 µg/mL (≈ 1.29 µM) | 8 µg/mL (≈ 20.6 µM) | 0.008 µg/mL (≈ 0.0206 µM) | 0.06 µg/mL (≈ 0.155 µM) | 0.03 µg/mL (≈ 0.0773 µM) | 0.125 µg/mL (≈ 0.322 µM) | 0.5 µg/mL (≈ 1.29 µM) | Cc1cc(-c2c(F)c(F)c3c(=O)c(C(=O)O)cn(C4CC4)c3c2F)cc(C)n1 [B, 1-Cyclopropyl-7-(2,6-dimethyl-4-pyridinyl)-5,6,8-trifluoro-1,4-dihydro-4-oxo-3-quinolinecarboxylic acid] | four times as active | thirty times as active | 0.14 mg/kg | 0.08 mg/kg | 9-30 times | 10.8 mg/kg | 8.9 mg/kg |  |
| 0.5 µg/mL (≈ 1.47 µM) | 4 µg/mL (≈ 11.8 µM) | 0.03 µg/mL (≈ 0.0881 µM) | 0.25 µg/mL (≈ 0.735 µM) | 0.25 µg/mL (≈ 0.735 µM) | 0.06 µg/mL (≈ 0.176 µM) | 2 µg/mL (≈ 5.88 µM) | CCn1cc(C(=O)O)c(=O)c2cc(F)c(-c3cc(C)nc(C)c3)cc21 [R, 7-(2,6-Dimethyl-4-pyridinyl)-1-ethyl-6-fluoro-1,4-dihydro-4-oxo-3-quinolinecarboxylic acid, reference compound] |  |  | 1.38 mg/kg | 0.71 mg/kg |  | 8.24 mg/kg | 5.39 mg/kg |  |
